Data as given in patent publication US5541229A, “Benzimidazoles and medicaments containing these compounds” (Dr. Karl Thomae GmbH, priority 1989, dated 1996).
Like-named read-outs stand apart in the source and are kept apart here.

What was measured:
[1] = target: T1, bovine adrenal gland receptor preparations (Bos taurus, UniProt P25104); test: inhibition of angiotensin II bonding to bovine adrenal gland receptor preparations; assay type: binding
T1 construct: aliquots of a membrane preparation of bovine adrenal cortex in tris buffer; from tissue; host or cells: bovine adrenal cortex membranes
T1 sequence (P25104 1-359): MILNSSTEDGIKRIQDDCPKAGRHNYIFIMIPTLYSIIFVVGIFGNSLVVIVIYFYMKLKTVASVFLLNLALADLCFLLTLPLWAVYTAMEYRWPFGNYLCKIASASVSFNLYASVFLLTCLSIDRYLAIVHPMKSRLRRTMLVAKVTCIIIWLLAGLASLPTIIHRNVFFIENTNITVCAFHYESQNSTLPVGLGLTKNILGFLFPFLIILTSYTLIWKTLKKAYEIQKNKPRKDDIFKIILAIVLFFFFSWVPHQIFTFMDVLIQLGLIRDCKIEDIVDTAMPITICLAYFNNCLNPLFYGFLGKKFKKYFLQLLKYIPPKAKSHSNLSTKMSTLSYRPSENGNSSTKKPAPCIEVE
Experimental: After 45 minutes the incubation was stopped by rapid filtration through glass fibre filters. The radioactivity associated with the filter was determined in a […] at a counting efficiency of 80%.

angiotensin II = target: T2, angiotensin II (Rattus norvegicus, UniProt P25095); test: displacement of angiotensin II dose-effect curves (increase in arterial blood pressure) in rats, pA2; assay type: in vivo; conditions: average, angiotensin II antagonism in rats, 10, 20 and 30 mg/kg i.v.
T2 construct: The measured parameter is the increase in the arterial blood pressure; from tissue; host or cells: whole anaesthetised rat with destroyed spine, in vivo (vascular receptors)
T2 sequence (P25095 1-359): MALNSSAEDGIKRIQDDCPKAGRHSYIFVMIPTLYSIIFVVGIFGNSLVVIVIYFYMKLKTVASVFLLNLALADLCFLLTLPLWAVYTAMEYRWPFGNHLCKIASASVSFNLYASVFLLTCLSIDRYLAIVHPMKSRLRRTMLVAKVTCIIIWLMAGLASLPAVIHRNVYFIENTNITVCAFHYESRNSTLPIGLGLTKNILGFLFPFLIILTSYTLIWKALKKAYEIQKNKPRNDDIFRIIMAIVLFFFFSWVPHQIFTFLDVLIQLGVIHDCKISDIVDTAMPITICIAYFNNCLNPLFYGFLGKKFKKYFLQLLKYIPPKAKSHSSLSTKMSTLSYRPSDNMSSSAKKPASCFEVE
Experimental: a) rats (male, 180-220 g) are anaesthetised using sodium hexobarbital (150 mg/kg i.p.). After the anaesthetic has taken effect, a tracheal cannula is inserted, the spine is destroyed in the animals and then they are immediately respirated artifically using a respiratory pump. The arterial blood pressure is recorded via a cannula in the carotid artery by means of a Bell & Howell pressure sensor. Substances are administered via a cannula in the jugular vein. Test substances are administered in three doses (10, 20 and 30 mg/kg i.v.), wherein one dose of substance is tested per animal. […] The measured parameter is the increase in the arterial blood pressure. These dose-effect graphs are compared with standard graphs for angiotensin II without test substances. A computer program determines the displacements to the right of the dose-effect graphs for angiotensin II as a result of test substances, and calculates corresponding pA2 values for the test substances.

IC50 ([1]; 50% inhibition of the specific 125I-angiotensin II (50 pM) bonding, bovine adrenal cortex membranes, 45 minutes) [nM]	IC50 [1] [nM]	Structure (SMILES)	pA2 values (angiotensin II)
84	–	CCCCc1nc2ccc(NC(=O)C3CCCCC3)cc2n1Cc1ccc(-c2ccccc2C(=O)O)cc1 [V]	7,26
–	58	CCCCc1nc2ccc(NC(=O)CC)cc2n1Cc1ccc(-c2ccccc2C(=O)O)cc1 [L]	6,04
–	86	CCCCNC(=O)N(C)c1ccc2nc(CCCC)n(Cc3ccc(-c4ccccc4C(=O)O)cc3)c2c1 [W]	6,28
–	68	CCCCc1nc2ccc(N(Cc3ccccc3)C(=O)OCC)cc2n1Cc1ccc(-c2ccccc2C(=O)O)cc1 [Q]	6,83
–	1000	CCCCc1nc2ccc(N3C(=O)[C@H]4CCCC[C@H]4C3=O)cc2n1Cc1ccc(-c2ccccc2-c2nn[nH]n2)cc1 [CC]	8,54
–	31	CCCCc1nc2ccc(N(CC)C(=O)NC3CCCCC3)cc2n1Cc1ccc(-c2ccccc2C(=O)O)cc1 [C]	6,36
–	72	CCCCc1nc2ccc(NC(=O)N(C)C)cc2n1Cc1ccc(-c2ccccc2C(=O)O)cc1 [R]	7,16
–	79	CCCCCN(C(=O)NC)c1ccc2nc(CCCC)n(Cc3ccc(-c4ccccc4C(=O)O)cc3)c2c1 [U]	7,20
–	150	CCCCc1nc2ccc(N3C(=O)[C@H]4CCCC[C@H]4C3=O)cc2n1Cc1ccc(-c2ccccc2C(=O)O)cc1 [Y]	6,97
–	67	CCCCc1nc2ccc(NC(=O)CCC)cc2n1Cc1ccc(-c2ccccc2C(=O)O)cc1 [P]	6,46
–	65	CCCCc1nc2ccc(NC(=O)NC3CCCCO3)cc2n1Cc1ccc(-c2ccccc2C(=O)O)cc1 (stereo not drawn) [N]	7,02
–	76	CCCCc1nc2ccc(NC(=O)NCCCCCO)cc2n1Cc1ccc(-c2ccccc2C(=O)O)cc1 [T]	7,20
–	100	CCCCCCNC(=O)N(CCc1ccccc1)c1ccc2nc(CCCC)n(Cc3ccc(-c4ccccc4C(=O)O)cc3)c2c1 [AA]	–
–	46	CCCCc1nc2ccc(NC(=O)C3CCCC3)cc2n1Cc1ccc(-c2ccccc2C(=O)O)cc1 [BB]	–
–	29	CCCCc1nc2ccc(N(CCCC)C(=O)NC3CCCCC3)cc2n1Cc1ccc(-c2ccccc2C(=O)O)cc1 [B]	6,63
–	65	CCCCNC(=O)Nc1ccc2nc(CCCC)n(Cc3ccc(-c4ccccc4C(=O)O)cc3)c2c1 [O]	6,46
–	46	CCCCCN(C(=O)NC1CCCCC1)c1ccc2nc(CCCC)n(Cc3ccc(-c4ccccc4C(=O)O)cc3)c2c1 [G]	6,89
–	57	CCCCC(=O)Nc1ccc2nc(CCCC)n(Cc3ccc(-c4ccccc4C(=O)O)cc3)c2c1 [K]	6,38
–	61	CCCCc1nc2ccc(NC(=O)C(C)C)cc2n1Cc1ccc(-c2ccccc2C(=O)O)cc1 [M]	6,87
–	99	CCCCc1nc2c(C)ccc(O)c2n1Cc1ccc(-c2ccccc2-c2nn[nH]n2)cc1 [X]	6,57
–	54	CCCCc1nc2ccc(N(Cc3ccccc3)C(=O)NC3CCCCC3)cc2n1Cc1ccc(-c2ccccc2C(=O)O)cc1 [J]	7,38
–	51	CCCCc1nc2ccc(N(Cc3ccccc3)C(=O)NC)cc2n1Cc1ccc(-c2ccccc2C(=O)O)cc1 [H]	6,48
–	72	CCCCCCN(C(=O)NC1CCCCC1)c1ccc2nc(CCCC)n(Cc3ccc(-c4ccccc4C(=O)O)cc3)c2c1 [S]	6,69
–	51	CCCCc1nc2ccc(N3Cc4ccccc4C3=O)cc2n1Cc1ccc(-c2ccccc2C(=O)O)cc1 [I]	6,12
–	133	CCCCc1nc2ccc(N(Cc3ccccc3)C(=O)N(C)C)cc2n1Cc1ccc(-c2ccccc2C(=O)O)cc1 [Z]	7,15
–	29	CCCCCCNC(=O)N(Cc1ccccc1)c1ccc2nc(CCCC)n(Cc3ccc(-c4ccccc4C(=O)O)cc3)c2c1 [A]	7,23
–	46	CCCCc1nc2ccc(N(C)C(=O)NC3CCCCC3)cc2n1Cc1ccc(-c2ccccc2C(=O)O)cc1 [E]	7,34
–	44	CCCCc1nc2ccc(N(CCC)C(=O)NC3CCCCC3)cc2n1Cc1ccc(-c2ccccc2C(=O)O)cc1 [D]	6,59
